10 compounds from US20250353860A1, “PIPERIDINE CARBOXAMIDE AZAINDANE DERIVATIVE, METHOD FOR PREPARING SAME, AND USE THEREOF” (BRISE PHARMACEUTICALS CO., LTD., priority 2022, published 2025) can be followed below.

The target in assay [1] is T1, CGRP receptor (Homo sapiens, UniProt O60894+Q16602). Description: Affinity for human CGRP receptor ([125I]h-CGRPα competition, CHO cell membranes). More on the design: host or cells: CHO-K1. The following applies: 0.03 nM [125I]h-CGRPα; Cheng Prusoff; read-out: Ki of the affinity determination to human CGRP receptor. The class given is binding. Here is the method:
The cell membrane homogenate of CHO cells expressing human CGRP receptor (comprising 16 μg of protein) was incubated with 0.03 nM [^125I]h-CGRPα and gradiently diluted test samples in buffer (50 mM Hepes-NaOH (pH 7.4), 10 mM MgCl2, 4 mM KCl, 10 mM […], 1 mM EDTA, 1 μM phosphorylation amide, 0.3% BSA and 0.04% bacitracin) at 22° C. for 90 minutes. A control group without the test sample was set up to obtain the highest binding signal of the experiment, and the non-specific binding of the experiment was determined by adding 1 μM non-isotope-labeled h-CGRPα to the control group. After the incubation, a glass fiber filter (GF/B, Packard) soaked with 0.3% PEI was placed in a 96-well cell collector (Unfilter, Packard), and the sample was quickly filtered under vacuum and rinsed several times with precooled buffer comprising 50 mM Tris-HCl and 150 mM NaCl. After the filter was dried, scintillation fluid (Microscint 0, Packard) was added and the radioactive signal value was measured using a scintillation counter (Topcount, Packard). The results are expressed as the percentage of inhibition of specific binding of the radioligand. Non-isotope labeled h-CGRPα was used as a standard sample as a control. The test samples and standard samples were tested at multiple concentrations to obtain a competition curve with [^125I]h-CGRPα, thereby calculating the IC50) 20 of each sample. The inhibition constant Ki was further calculated using the Cheng Prusoff equation: Ki=IC50/(1+L/KD), wherein L represents the concentration of [^125I]h-CGRPα in the system (0.03 nM), and KD represents the dissociation constant between [^125I]h-CGRPα and the human CORP receptor in the system (0.06 nM).

Assay [2] addresses T1, CGRP receptor. Description: Inhibition of CGRP signaling pathway (cAMP, HTRF) in SK-N-MC cells. The format is cell-based. More on the design: SK-N-MC (ATCC, HTB-10) cells endogenously expressing CGRP receptor; host or cells: SK-N-MC. The following applies: [α-CGRP]=10 ng/mL; increase in cAMP levels; read-out: IC50 of the inhibitory effect on the CGRP signaling pathway in SK-N-MC cells. The protocol:
(§1) The inhibitory effect of the CGRP signaling pathway in vitro is evaluated by measuring the cAMP level. The principle is that after CGRP binds to the CGRP receptor, the CGRP signaling pathway is activated, inducing an increase in the cAMP level. […] The specific experimental method is as follows:
cAMP was determined using the CAMP-GS DYNAMIC KIT detection kit (Cisbio, 62AM4PEB).
SK-N-MC (ATCC, HTB-10) cells endogenously expressing CGRP receptor were cultured in EMEM+10% FBS medium and the cells were collected during the logarithmic growth phase. According to the instructions of the kit, the cells were resuspended in Stimulation Buffer comprising 0.5 mM IBMX, and 5 μL of the cell suspension was added to each well of a 96-well microplate (Cisbio, 66PL96025) at a cell density of 15,000 cells/well, 2.5 μL of gradient diluted compound solution was added to each well. After incubation at 37° C. for 30 minutes, 2.5 μL of 40 ng/ml human α-CGRP (Bachem, H-1470.0500) diluted in Stimulation Buffer comprising 0.5 mM IBMX was added to each well to a final concentration of 10 ng/ml. After incubation at 37° C. for 30 minutes, 5 μL of Anti-cAMP-Cryptate solution and 5 μL of cAMP-d2 solution were added to each well. After incubation at room temperature for 60 minutes, the HTRF signal was read using a microplate reader (Molecular Devices). Graphpad Prism was used to calculate the IC50 value of the compound's inhibitory effect on the increase in cAMP levels based on the compound concentration and HTRF signal.
A general note: Time-resolved FRET reads energy transfer from a long-lived donor to a nearby acceptor.

Assay [3] addresses T1, CGRP receptor. Description: Inhibition of CGRP signaling pathway (cAMP, HTRF) in CHO-K1 cells expressing human CGRP receptors. The class given is cell-based. More on the design: host or cells: CHO-K1. The following applies: [α-CGRP]=10 ng/ml; increase in cAMP levels; read-out: IC50 of the inhibitory effect on the CGRP signaling pathway in CHO-K1 cells expressing human CGRP receptors. Here is the method:
as §1
CHO-K1 cells expressing human CGRP receptor (CGRPR/CHO-K1, PerkinElmer, ES-420-C) were cultured in F12K+10% FBS+400 μg/mL G418+10 μg/mL Blasticidin medium, and the cells were collected in the logarithmic growth phase. According to the instructions of the kit, the cells were resuspended in Stimulation Buffer comprising 0.5 mM IBMX, and 5 μL of the cell suspension was added to each well of a 96-well microplate (Cisbio, 66PL96025) at a cell density of 15,000 cells/well. 2.5 μL of gradient diluted compound solution was added to each well. After incubation at 37° C. for 30 minutes, 2.5 μL of 40 ng/ml human α-CGRP (Bachem, H-1470,0500) diluted in Stimulation Buffer comprising 0.5 mM IBMX was added to each well to a final concentration of 10 ng/ml. After incubation at 37° C. for 30 minutes, 5 μL of Anti-cAMP-Cryptate solution and 5 μL of cAMP-d2 solution were added to each well. After incubation at room temperature for 60 minutes, the HTRF signal was read using a microplate reader (Molecular Devices). Graphpad Prism was used to calculate the IC50 value of the compound's inhibitory effect on the increase in cAMP levels based on the compound concentration and HTRF signal.

For orientation: Ki means the equilibrium dissociation constant of an inhibitor or competing ligand from its target. Broadly, the IC50 is the midpoint of a concentration-inhibition curve.

Each structure is given as a SMILES string.

For the compound `C[C@@H]1[C@H](c2ccccc2)C[C@H](NC(=O)c2cnc3c(c2)C[C@@]2(C3)C(=O)Nc3ncccc32)C(=O)N1CC(F)(F)F` [Ubrogepant, reference compound], the Ki on CGRP receptor [1] was determined as 0.027 nM.

Turning to `C[C@@H]1[C@H](c2c(F)ccc(F)c2F)C[C@H](NC(=O)c2nc3c(s2)CC2(C3)C(=O)Nc3ncccc32)C(=O)N1CC(F)(F)F` (stereo partly drawn) [Example 11, N-((3S,5S,6R)-6-methyl-2-oxo-1-(2,2,2-trifluoroethyl)-5-(2,3,6-trifluorophenyl)piperidin-3-yl)-2′-oxo-1′,2′,4,6-tetrahydrospiro[cyclopenta[d]thiazole-5,3′-pyrrolo[2,3-b]pyridine]-2-carboxamide], at CGRP receptor [2], the IC50 was 11 nM.

For `CC1C(c2c(F)ccc(F)c2F)CC(NC(=O)c2cc3c(s2)CC2(C3)C(=O)Nc3ncccc32)C(=O)N1CC(F)(F)F` (stereo not shown) [Example 3, N-(6-methyl-2-oxo-1-(2,2,2-trifluoroethyl)-5-(2,3,6-trifluorophenyl)piperidin-3-yl)-2′-oxo-1′,2′,4,6-tetrahydrospiro[cyclopenta[b]thiophene-5,3′-pyrrolo[2,3-b]pyridine]-2-carboxamide], the IC50 on CGRP receptor [3] turned out to be 64.7 nM.

For the compound `C[C@@H]1[C@H](c2c(F)ccc(F)c2F)C[C@H](NC(=O)c2nc3c(o2)CCC2(C3)C(=O)Nc3ncccc32)C(=O)N1CC(F)(F)F` (stereo partly drawn) [Example 12, N-((3S,5S,6R)-6-methyl-2-oxo-1-(2,2,2-trifluoroethyl)-5-(2,3,6-trifluorophenyl)piperidin-3-yl)-2′-oxo-1′,2′,6,7-tetrahydro-4H-spiro[benzo[d]oxazole-5, 3′-pyrrolo[2,3-b]pyridine]-2-carboxamide], on CGRP receptor [2], the concentration for half-maximal inhibition (IC50) came out at 53.6 nM.

In the case of `CC1C(c2c(F)ccc(F)c2F)CC(NC(=O)c2cc3c(s2)CCC2(C3)C(=O)Nc3ncccc32)C(=O)N1CC(F)(F)F` (stereo not shown) [Example 2, N-(6-methyl-2-oxo-1-(2,2,2-trifluoroethyl)-5-(2,3,6-trifluorophenyl)piperidin-3-yl)-2′-oxo-1′,2′,6,7-tetrahydro-4H-spiro[benzo[b]thiophene-5,3′-pyrrolo[2,3-b]pyridine]-2-carboxamide], the IC50 on CGRP receptor [3] stood at 250 nM.

As to `C[C@@H]1[C@H](c2c(F)ccc(F)c2F)C[C@H](NC(=O)c2nc3c(s2)CC2(CC3)C(=O)Nc3ncccc32)C(=O)N1CC(F)(F)F` (stereo partly drawn) [Example 9, N-((3S,5S,6R)-6-methyl-2-oxo-1-(2,2,2-trifluoroethyl)-5-(2,3,6-trifluorophenyl)piperidin-3-yl)-2′-oxo-1′,2′,4,7-tetrahydro-5H-spiro[benzo[d]thiazole-6,3′-pyrrolo[2,3-b]pyridine]-2-carboxamide], the IC50 on CGRP receptor [2] was over 100 nM.

Take `CC1C(c2c(F)ccc(F)c2F)CC(NC(=O)c2cc3c(o2)CCC2(C3)C(=O)Nc3ncccc32)C(=O)N1CC(F)(F)F` (stereo not shown) [Example 1, N-(6-methyl-2-oxo-1-(2,2,2-trifluoroethyl)-5-(2,3,6-trifluorophenyl)piperidin-3-yl)-2′-oxo-1′,2′,6,7-tetrahydro-4H-spiro[benzofuran-5,3′-pyrrolo[2,3-b]pyridine]-2-carboxamide]: the IC50 on CGRP receptor [3] turned out to be 106 nM.

Regarding `C[C@@H]1[C@H](c2c(F)ccc(F)c2F)C[C@H](NC(=O)c2cc3c([nH]2)CC2(C3)C(=O)Nc3ncccc32)C(=O)N1CC(F)(F)F` (stereo partly drawn) [Example 10, N-((3S,5S,6R)-6-methyl-2-oxo-1-(2,2,2-trifluoroethyl)-5-(2,3,6-trifluorophenyl)piperidin-3-yl)-2′-oxo-1′,2′,4,6-tetrahydro-1H-spiro[cyclopenta[b]pyrrole-5,3′-pyrrolo[2,3-b]pyridine]-2-carboxamide], the IC50 at CGRP receptor [2] came to 6.8 nM.

For `C[C@@H]1[C@H](c2c(F)ccc(F)c2F)C[C@H](NC(=O)c2cc3c([nH]2)CCC2(C3)C(=O)Nc3ncccc32)C(=O)N1CC(F)(F)F` (stereo partly drawn) [Example 13, N-((3S,5S,6R)-6-methyl-2-oxo-1-(2,2,2-trifluoroethyl)-5-(2,3,6-trifluorophenyl)piperidin-3-yl)-2′-oxo-1,1′,2′,4,6,7-hexahydrospiro[indole-5,3′-pyrrolo[2,3-b]pyridine]-2-carboxamide], the IC50 on CGRP receptor [2] was 0.89 nM.

As for `CC1C(c2c(F)ccc(F)c2F)CC(NC(=O)c2cc3c(o2)CC2(C3)C(=O)Nc3ncccc32)C(=O)N1CC(F)(F)F` (stereo not shown) [Example 4, N-(6-methyl-2-oxo-1-(2,2,2-trifluoroethyl)-5-(2,3,6-trifluorophenyl)piperidin-3-yl)-2′-oxo-1′,2′,4,6-tetrahydrospiro[cyclopenta[b]furan-5,3′-pyrrolo[2,3-b]pyridine]-2-carboxamide], the IC50 on CGRP receptor [3] worked out at 199 nM.
